From PMC10636171 (Cell Death & Disease, 2023)

Columns and labels:
Assay in all cases: HTRF/ADP-Glo kinase selectivity panel
Assay type in all cases: biochemical
Details in all cases: 500 nM, read-out: 1D228(%inhibition)@500nM
[1] = target: T1, IRR (Homo sapiens, UniProt P14616)
T1 construct: purchased Invitrogen (c-Met, TRKA, TRKB, TRKC)
Method: (§1) The compound was serial diluted from 10 mM stock in DMSO, dilute the test compound to 0.1 mM (200 times the specified test concentration). 2 × ATP & Substrate solution and 2 × kinase & Metal solution were prepared using assay buffer; Transfer 25 nL compound to 384 assay plate by Echo 655; After centrifugation, add 2.5 μL 2 × kinase/metal ion solution 384 assay plate, and incubate at 25 °C for 10 min. 2 × XL665 & Antibody solution were prepared with detection buffer; 5 μL of Kinase Detection Reagent was added to the well, and incubated for 60 min at 25 °C; The fluorescence signals of 620 nm (Cryptate) and 665 nm (XL665) were read by microtiter plate reader; […]

[2] = target: T2, PYK2 (Homo sapiens, UniProt Q14289)
T2 construct: purchased Invitrogen (c-Met, TRKA, TRKB, TRKC)
Method: as §1

[3] = target: T3, MER (Homo sapiens, UniProt Q12866)
T3 construct: purchased Invitrogen (c-Met, TRKA, TRKB, TRKC)
Method: as §1

[4] = target: T4, FGR (Homo sapiens, UniProt P09769)
T4 construct: purchased Invitrogen (c-Met, TRKA, TRKB, TRKC)
Method: as §1

[5] = target: T5, ABL1 (Homo sapiens, UniProt P00519)
T5 construct: purchased Invitrogen (c-Met, TRKA, TRKB, TRKC)
Method: as §1

[6] = target: T6, RET (Homo sapiens, UniProt P07949)
T6 construct: purchased Invitrogen (c-Met, TRKA, TRKB, TRKC)
Method: as §1

[7] = target: T7, FAK (Homo sapiens, UniProt Q05397)
T7 construct: purchased Invitrogen (c-Met, TRKA, TRKB, TRKC)
Method: as §1

[8] = target: T8, BMX (Homo sapiens, UniProt P51813)
T8 construct: purchased Invitrogen (c-Met, TRKA, TRKB, TRKC)
Method: as §1

[9] = target: T9, EPHA4 (Homo sapiens, UniProt P54764)
T9 construct: purchased Invitrogen (c-Met, TRKA, TRKB, TRKC)
Method: as §1

[10] = target: T10, EPHA2 (Homo sapiens, UniProt P29317)
T10 construct: purchased Invitrogen (c-Met, TRKA, TRKB, TRKC)
Method: as §1

[11] = target: T11, EPHA8 (Homo sapiens, UniProt P29322)
T11 construct: purchased Invitrogen (c-Met, TRKA, TRKB, TRKC)
Method: as §1

[12] = target: T12, PDGFRα (Homo sapiens, UniProt P16234)
T12 construct: purchased Invitrogen (c-Met, TRKA, TRKB, TRKC)
Method: as §1

[13] = target: T13, MET (Homo sapiens, UniProt P08581)
T13 construct: purchased Invitrogen (c-Met, TRKA, TRKB, TRKC)
Method: as §1

[14] = target: T14, EGFR T790M L858R (Homo sapiens, UniProt P00533, L858R/T790M)
T14 construct: purchased Invitrogen (c-Met, TRKA, TRKB, TRKC)
Method: as §1

[15] = target: T15, CSK (Homo sapiens, UniProt P41240)
T15 construct: purchased Invitrogen (c-Met, TRKA, TRKB, TRKC)
Method: as §1

[16] = target: T16, BRK (Homo sapiens, UniProt Q13882)
T16 construct: purchased Invitrogen (c-Met, TRKA, TRKB, TRKC)
Method: as §1

[17] = target: T17, FLT3 (Homo sapiens, UniProt P36888)
T17 construct: purchased Invitrogen (c-Met, TRKA, TRKB, TRKC)
Method: as §1

[18] = target: T18, DDR2 (Homo sapiens, UniProt Q16832)
T18 construct: purchased Invitrogen (c-Met, TRKA, TRKB, TRKC)
Method: as §1

[19] = target: T19, EPHA3 (Homo sapiens, UniProt P29320)
T19 construct: purchased Invitrogen (c-Met, TRKA, TRKB, TRKC)
Method: as §1

[20] = target: T20, SRM (Homo sapiens, UniProt Q9H3Y6)
T20 construct: purchased Invitrogen (c-Met, TRKA, TRKB, TRKC)
Method: as §1

[21] = target: T21, KDR (Homo sapiens, UniProt P35968)
T21 construct: purchased Invitrogen (c-Met, TRKA, TRKB, TRKC)
Method: as §1

[22] = target: T22, PDGFRβ (Homo sapiens, UniProt P09619)
T22 construct: purchased Invitrogen (c-Met, TRKA, TRKB, TRKC)
Method: as §1

[23] = target: T23, BTK (Homo sapiens, UniProt Q06187)
T23 construct: purchased Invitrogen (c-Met, TRKA, TRKB, TRKC)
Method: as §1

[24] = target: T24, TEC (Homo sapiens, UniProt P42680)
T24 construct: purchased Invitrogen (c-Met, TRKA, TRKB, TRKC)
Method: as §1

[25] = target: T25, ITK (Homo sapiens, UniProt Q08881)
T25 construct: purchased Invitrogen (c-Met, TRKA, TRKB, TRKC)
Method: as §1

[26] = target: T26, TYK2 (Homo sapiens, UniProt P29597)
T26 construct: purchased Invitrogen (c-Met, TRKA, TRKB, TRKC)
Method: as §1

[27] = target: T27, EPHB3 (Homo sapiens, UniProt P54753)
T27 construct: purchased Invitrogen (c-Met, TRKA, TRKB, TRKC)
Method: as §1

[28] = target: T28, AXL (Homo sapiens, UniProt P30530)
T28 construct: purchased Invitrogen (c-Met, TRKA, TRKB, TRKC)
Method: as §1

[29] = target: T29, EPHB2 (Homo sapiens, UniProt P29323)
T29 construct: purchased Invitrogen (c-Met, TRKA, TRKB, TRKC)
Method: as §1

[30] = target: T30, ACK (Homo sapiens, UniProt Q07912)
T30 construct: purchased Invitrogen (c-Met, TRKA, TRKB, TRKC)
Method: as §1

[31] = target: T31, Her4 (Homo sapiens, UniProt Q15303)
T31 construct: purchased Invitrogen (c-Met, TRKA, TRKB, TRKC)
Method: as §1

[32] = target: T32, FLT1 (Homo sapiens, UniProt P17948)
T32 construct: purchased Invitrogen (c-Met, TRKA, TRKB, TRKC)
Method: as §1

[33] = target: T33, FRK (Homo sapiens, UniProt P42685)
T33 construct: purchased Invitrogen (c-Met, TRKA, TRKB, TRKC)
Method: as §1

[34] = target: T34, EPHA5 (Homo sapiens, UniProt P54756)
T34 construct: purchased Invitrogen (c-Met, TRKA, TRKB, TRKC)
Method: as §1

[35] = target: T35, IGF1R (Homo sapiens, UniProt P08069)
T35 construct: purchased Invitrogen (c-Met, TRKA, TRKB, TRKC)
Method: as §1

[36] = target: T36, SYK (Homo sapiens, UniProt P43405)
T36 construct: purchased Invitrogen (c-Met, TRKA, TRKB, TRKC)
Method: as §1

[37] = target: T37, YES (Homo sapiens, UniProt P07947)
T37 construct: purchased Invitrogen (c-Met, TRKA, TRKB, TRKC)
Method: as §1

[38] = target: T38, FGFR2 (Homo sapiens, UniProt P21802)
T38 construct: purchased Invitrogen (c-Met, TRKA, TRKB, TRKC)
Method: as §1

[39] = target: T39, LCK (Homo sapiens, UniProt P06239)
T39 construct: purchased Invitrogen (c-Met, TRKA, TRKB, TRKC)
Method: as §1

[40] = target: T40, FGFR4 (Homo sapiens, UniProt P22455)
T40 construct: purchased Invitrogen (c-Met, TRKA, TRKB, TRKC)
Method: as §1

T9 sequence (P54764 20-986): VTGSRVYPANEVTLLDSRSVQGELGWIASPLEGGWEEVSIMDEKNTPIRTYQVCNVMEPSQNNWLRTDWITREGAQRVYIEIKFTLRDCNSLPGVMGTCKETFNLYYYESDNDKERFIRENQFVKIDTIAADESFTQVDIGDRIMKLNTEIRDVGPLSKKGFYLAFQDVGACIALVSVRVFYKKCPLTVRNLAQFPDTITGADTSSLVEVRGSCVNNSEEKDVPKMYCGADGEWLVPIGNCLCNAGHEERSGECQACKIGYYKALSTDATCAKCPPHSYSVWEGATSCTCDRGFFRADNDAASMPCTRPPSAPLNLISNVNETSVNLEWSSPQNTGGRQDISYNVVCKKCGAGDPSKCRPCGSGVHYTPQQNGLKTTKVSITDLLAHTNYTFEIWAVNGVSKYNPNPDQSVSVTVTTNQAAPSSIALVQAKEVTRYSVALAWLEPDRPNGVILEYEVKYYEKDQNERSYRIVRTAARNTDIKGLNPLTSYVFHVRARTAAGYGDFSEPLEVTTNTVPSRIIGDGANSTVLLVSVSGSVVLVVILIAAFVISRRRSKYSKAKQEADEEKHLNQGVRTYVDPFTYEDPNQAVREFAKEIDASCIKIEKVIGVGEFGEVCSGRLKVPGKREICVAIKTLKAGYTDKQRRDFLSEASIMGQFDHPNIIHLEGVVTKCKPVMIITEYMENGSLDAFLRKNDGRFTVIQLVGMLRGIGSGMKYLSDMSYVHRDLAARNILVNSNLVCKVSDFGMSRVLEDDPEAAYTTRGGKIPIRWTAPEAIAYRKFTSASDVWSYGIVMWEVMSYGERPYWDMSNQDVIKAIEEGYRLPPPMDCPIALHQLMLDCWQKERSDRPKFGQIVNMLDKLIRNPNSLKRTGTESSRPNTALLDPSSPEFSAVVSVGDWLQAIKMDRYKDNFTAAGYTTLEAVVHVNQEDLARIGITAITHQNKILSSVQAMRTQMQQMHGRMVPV
T3 sequence (Q12866 21-999): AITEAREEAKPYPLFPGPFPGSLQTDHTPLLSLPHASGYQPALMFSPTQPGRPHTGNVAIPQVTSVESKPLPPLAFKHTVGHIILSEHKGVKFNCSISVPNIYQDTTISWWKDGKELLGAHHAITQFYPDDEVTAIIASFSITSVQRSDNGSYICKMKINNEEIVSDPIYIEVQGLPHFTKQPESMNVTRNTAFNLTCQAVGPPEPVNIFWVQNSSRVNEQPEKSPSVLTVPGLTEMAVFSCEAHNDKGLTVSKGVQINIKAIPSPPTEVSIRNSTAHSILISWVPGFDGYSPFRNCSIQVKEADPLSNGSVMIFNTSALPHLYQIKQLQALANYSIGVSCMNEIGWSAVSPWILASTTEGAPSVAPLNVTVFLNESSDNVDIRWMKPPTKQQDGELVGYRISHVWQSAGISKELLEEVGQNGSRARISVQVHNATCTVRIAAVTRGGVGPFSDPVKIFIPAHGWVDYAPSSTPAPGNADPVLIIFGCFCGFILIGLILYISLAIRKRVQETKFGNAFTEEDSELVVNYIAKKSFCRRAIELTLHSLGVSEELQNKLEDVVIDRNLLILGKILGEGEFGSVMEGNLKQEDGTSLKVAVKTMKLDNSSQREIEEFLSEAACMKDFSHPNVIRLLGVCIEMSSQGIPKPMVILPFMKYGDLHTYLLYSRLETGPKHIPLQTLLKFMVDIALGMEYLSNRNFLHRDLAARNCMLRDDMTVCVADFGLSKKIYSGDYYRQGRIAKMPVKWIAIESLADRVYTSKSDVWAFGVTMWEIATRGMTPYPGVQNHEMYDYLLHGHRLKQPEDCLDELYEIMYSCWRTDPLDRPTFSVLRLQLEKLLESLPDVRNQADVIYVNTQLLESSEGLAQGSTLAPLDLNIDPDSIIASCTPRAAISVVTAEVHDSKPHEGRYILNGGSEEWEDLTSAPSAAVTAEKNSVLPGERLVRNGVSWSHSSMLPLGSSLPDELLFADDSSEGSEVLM
T18 sequence (Q16832 22-855): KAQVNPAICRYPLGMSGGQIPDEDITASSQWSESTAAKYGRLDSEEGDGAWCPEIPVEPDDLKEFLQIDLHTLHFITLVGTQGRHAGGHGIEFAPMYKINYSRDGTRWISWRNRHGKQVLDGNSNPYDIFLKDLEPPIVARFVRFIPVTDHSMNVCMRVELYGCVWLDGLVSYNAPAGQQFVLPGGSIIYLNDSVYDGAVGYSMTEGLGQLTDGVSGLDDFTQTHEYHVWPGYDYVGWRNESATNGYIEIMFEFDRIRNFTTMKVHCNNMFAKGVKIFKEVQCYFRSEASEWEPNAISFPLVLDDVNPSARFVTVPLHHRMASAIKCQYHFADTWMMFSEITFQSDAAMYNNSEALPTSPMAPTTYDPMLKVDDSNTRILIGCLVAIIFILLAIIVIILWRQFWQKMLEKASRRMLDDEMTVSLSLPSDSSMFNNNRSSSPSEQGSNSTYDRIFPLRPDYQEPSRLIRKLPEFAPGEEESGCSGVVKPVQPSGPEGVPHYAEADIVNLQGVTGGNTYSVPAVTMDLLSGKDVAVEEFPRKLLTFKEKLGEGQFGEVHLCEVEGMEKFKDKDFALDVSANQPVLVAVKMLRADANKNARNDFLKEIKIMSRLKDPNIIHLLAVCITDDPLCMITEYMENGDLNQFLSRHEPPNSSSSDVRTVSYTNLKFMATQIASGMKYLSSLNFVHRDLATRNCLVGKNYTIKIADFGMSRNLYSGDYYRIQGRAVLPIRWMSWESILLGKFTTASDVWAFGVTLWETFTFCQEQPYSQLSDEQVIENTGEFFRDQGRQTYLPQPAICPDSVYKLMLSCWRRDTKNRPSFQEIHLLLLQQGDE
T6 sequence (P07949 29-1114): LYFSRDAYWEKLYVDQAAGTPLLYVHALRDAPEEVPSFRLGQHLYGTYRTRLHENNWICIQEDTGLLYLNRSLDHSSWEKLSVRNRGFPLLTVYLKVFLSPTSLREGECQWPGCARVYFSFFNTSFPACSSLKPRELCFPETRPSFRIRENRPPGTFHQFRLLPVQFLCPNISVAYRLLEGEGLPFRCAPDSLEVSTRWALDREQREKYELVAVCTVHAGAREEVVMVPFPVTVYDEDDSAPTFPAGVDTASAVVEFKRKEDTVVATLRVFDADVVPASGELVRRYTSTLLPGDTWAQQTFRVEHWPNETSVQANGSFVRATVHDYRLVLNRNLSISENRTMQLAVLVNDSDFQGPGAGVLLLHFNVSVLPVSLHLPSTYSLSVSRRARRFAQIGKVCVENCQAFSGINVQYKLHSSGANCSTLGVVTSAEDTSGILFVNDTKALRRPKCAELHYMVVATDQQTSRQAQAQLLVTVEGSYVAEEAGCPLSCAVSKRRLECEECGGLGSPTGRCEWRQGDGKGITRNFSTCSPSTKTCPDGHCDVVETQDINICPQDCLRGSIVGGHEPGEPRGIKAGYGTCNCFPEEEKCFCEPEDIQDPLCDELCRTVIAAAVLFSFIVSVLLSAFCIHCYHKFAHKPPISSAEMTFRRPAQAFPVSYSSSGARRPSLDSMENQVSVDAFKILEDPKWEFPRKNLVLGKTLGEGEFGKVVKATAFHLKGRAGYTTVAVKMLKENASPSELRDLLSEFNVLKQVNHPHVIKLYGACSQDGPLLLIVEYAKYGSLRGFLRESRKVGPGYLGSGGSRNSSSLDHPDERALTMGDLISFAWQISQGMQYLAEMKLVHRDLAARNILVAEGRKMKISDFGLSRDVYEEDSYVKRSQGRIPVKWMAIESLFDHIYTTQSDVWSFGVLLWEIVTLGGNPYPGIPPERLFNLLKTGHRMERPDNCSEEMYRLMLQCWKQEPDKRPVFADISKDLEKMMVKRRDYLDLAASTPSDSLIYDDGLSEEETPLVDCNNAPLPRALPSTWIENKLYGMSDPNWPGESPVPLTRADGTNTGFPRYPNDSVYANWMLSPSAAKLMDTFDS
T5 sequence (P00519 whole entry): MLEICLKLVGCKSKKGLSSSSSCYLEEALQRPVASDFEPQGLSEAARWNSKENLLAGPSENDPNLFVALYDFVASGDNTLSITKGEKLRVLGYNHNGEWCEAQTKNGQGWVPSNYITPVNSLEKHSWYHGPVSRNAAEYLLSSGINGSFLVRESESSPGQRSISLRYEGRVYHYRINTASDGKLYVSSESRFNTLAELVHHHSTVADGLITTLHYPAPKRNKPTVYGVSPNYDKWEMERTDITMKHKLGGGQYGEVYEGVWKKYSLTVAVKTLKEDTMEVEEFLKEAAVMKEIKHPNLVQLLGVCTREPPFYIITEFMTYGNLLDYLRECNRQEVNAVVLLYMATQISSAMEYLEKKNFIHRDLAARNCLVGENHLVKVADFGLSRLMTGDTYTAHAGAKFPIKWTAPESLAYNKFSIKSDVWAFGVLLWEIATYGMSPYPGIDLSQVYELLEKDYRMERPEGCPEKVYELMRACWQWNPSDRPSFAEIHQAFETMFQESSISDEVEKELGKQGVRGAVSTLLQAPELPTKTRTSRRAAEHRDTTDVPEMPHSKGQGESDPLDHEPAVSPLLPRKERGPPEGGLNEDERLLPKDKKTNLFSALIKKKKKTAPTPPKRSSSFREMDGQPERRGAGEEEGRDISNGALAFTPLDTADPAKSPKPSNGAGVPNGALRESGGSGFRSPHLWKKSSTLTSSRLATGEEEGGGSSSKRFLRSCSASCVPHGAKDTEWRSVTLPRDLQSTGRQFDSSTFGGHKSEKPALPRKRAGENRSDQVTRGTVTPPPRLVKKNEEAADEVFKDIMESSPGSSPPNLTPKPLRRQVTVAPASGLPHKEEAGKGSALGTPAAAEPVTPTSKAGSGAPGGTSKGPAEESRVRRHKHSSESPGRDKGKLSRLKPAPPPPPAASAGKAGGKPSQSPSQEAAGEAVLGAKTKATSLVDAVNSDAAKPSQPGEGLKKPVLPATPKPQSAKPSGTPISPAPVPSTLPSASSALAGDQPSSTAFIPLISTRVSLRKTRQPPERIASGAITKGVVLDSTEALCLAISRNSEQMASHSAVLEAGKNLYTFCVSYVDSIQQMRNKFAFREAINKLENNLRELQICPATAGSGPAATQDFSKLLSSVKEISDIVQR

For `[2H][C@@](C)(c1cccc(-c2ncc(OCC3CCN(C)CC3)cn2)c1)n1nc(-c2cccc(C#N)c2)ccc1=O` [1D228], which inhibition at 0.5 µM [1] is on record?
Its inhibition at 0.5 µM is 3.88%.

What about the inhibition at 0.5 µM [2] of the same compound?
The inhibition at 0.5 µM was 1.14%.

What about the inhibition at 0.5 µM [3] of the same compound?
The inhibition at 0.5 µM was 84.1%.

And the inhibition at 0.5 µM [4]?
The inhibition at 0.5 µM was -20.7%.

And the inhibition at 0.5 µM [5]?
Its inhibition at 0.5 µM is 6.37%.

And the inhibition at 0.5 µM [6]?
Its inhibition at 0.5 µM is 12.2%.

And the inhibition at 0.5 µM [7]?
The inhibition at 0.5 µM was -9.58%.

And the inhibition at 0.5 µM [8]?
Its inhibition at 0.5 µM is 5.12%.

What about the inhibition at 0.5 µM [9] of the same compound?
Its inhibition at 0.5 µM is -14.7%.

And the inhibition at 0.5 µM [10]?
Its inhibition at 0.5 µM is -0.798%.

And the inhibition at 0.5 µM [11]?
The inhibition at 0.5 µM was 8.52%.

What about the inhibition at 0.5 µM [12] of the same compound?
The inhibition at 0.5 µM was 8.21%.

What about the inhibition at 0.5 µM [13] of the same compound?
The inhibition at 0.5 µM was 98.4%.

What about the inhibition at 0.5 µM [14] of the same compound?
The inhibition at 0.5 µM was 11.1%.

And the inhibition at 0.5 µM [15]?
The inhibition at 0.5 µM was -3.07%.

What about the inhibition at 0.5 µM [16] of the same compound?
The inhibition at 0.5 µM was 3.19%.

What about the inhibition at 0.5 µM [17] of the same compound?
Its inhibition at 0.5 µM is 17.9%.

What about the inhibition at 0.5 µM [18] of the same compound?
Its inhibition at 0.5 µM is -3.98%.

What about the inhibition at 0.5 µM [19] of the same compound?
Its inhibition at 0.5 µM is -11.8%.

What about the inhibition at 0.5 µM [20] of the same compound?
The inhibition at 0.5 µM was 2.66%.

What about the inhibition at 0.5 µM [21] of the same compound?
The inhibition at 0.5 µM was 5.62%.

And the inhibition at 0.5 µM [22]?
The inhibition at 0.5 µM was -3.95%.

What about the inhibition at 0.5 µM [23] of the same compound?
The inhibition at 0.5 µM was -3.81%.

And the inhibition at 0.5 µM [24]?
Its inhibition at 0.5 µM is 8.29%.

What about the inhibition at 0.5 µM [25] of the same compound?
Its inhibition at 0.5 µM is 1.6%.

What about the inhibition at 0.5 µM [26] of the same compound?
Its inhibition at 0.5 µM is 4.51%.

And the inhibition at 0.5 µM [27]?
Its inhibition at 0.5 µM is 5.68%.

What about the inhibition at 0.5 µM [28] of the same compound?
Its inhibition at 0.5 µM is 89.2%.

What about the inhibition at 0.5 µM [29] of the same compound?
Its inhibition at 0.5 µM is -3.54%.

And the inhibition at 0.5 µM [30]?
Its inhibition at 0.5 µM is 1.96%.

And the inhibition at 0.5 µM [31]?
The inhibition at 0.5 µM was 2.21%.

And the inhibition at 0.5 µM [32]?
The inhibition at 0.5 µM was 6%.

And the inhibition at 0.5 µM [33]?
Its inhibition at 0.5 µM is 11.3%.

What about the inhibition at 0.5 µM [34] of the same compound?
The inhibition at 0.5 µM was 3.74%.

What about the inhibition at 0.5 µM [35] of the same compound?
The inhibition at 0.5 µM was 5.26%.

What about the inhibition at 0.5 µM [36] of the same compound?
The inhibition at 0.5 µM was 2.47%.

What about the inhibition at 0.5 µM [37] of the same compound?
The inhibition at 0.5 µM was 11.3%.

And the inhibition at 0.5 µM [38]?
Its inhibition at 0.5 µM is 1.04%.

What about the inhibition at 0.5 µM [39] of the same compound?
Its inhibition at 0.5 µM is 5.21%.

And the inhibition at 0.5 µM [40]?
Its inhibition at 0.5 µM is -0.37%.
